Where two headings read alike, the source gives them in different places.
Target: T1, glucocorticoid receptor (GR) (Homo sapiens, UniProt P04150)
T1 sequence (P04150 1-777): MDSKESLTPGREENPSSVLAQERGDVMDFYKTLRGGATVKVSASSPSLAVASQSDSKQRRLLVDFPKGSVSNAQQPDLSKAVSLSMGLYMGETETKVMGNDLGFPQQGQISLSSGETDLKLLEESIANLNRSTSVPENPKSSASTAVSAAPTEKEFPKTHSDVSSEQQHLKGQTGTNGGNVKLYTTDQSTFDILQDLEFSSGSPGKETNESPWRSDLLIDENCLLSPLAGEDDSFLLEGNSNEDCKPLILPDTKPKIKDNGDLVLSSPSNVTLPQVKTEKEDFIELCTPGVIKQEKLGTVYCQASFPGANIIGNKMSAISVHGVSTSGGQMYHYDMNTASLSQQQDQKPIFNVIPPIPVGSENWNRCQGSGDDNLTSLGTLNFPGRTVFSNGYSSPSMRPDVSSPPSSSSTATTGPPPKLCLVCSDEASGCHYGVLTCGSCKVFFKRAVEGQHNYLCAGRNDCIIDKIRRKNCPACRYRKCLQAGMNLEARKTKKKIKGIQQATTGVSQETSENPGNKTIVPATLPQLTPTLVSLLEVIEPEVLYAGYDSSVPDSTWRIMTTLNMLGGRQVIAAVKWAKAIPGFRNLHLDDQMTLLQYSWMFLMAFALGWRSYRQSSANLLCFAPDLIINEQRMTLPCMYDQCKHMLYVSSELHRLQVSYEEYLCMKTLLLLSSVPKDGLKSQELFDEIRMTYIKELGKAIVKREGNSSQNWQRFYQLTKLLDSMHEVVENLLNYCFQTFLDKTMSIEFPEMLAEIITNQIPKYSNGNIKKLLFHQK
Assay: GR-EFC nuclear translocation assay
Type: cell-based
Settings: for qHTS Hill Slope: Hill slope of the qHTS curve fit; for qHTS Max Activity: maximal activity of the qHTS curve, inactive threshold […] (3σ); for log qEC50: log10 of qEC50 in M, printed as negative values; for EC50: read-out: qEC50

[1] = class 4 values are fit defaults
[2] = qHTS curve fit, class 4 values are fit defaults

Compound | qHTS Hill Slope | qHTS Max Activity | EC50 [2] [µM] | further results
C[C@@]12CCC(=O)C=C1CC[C@@H]1[C@@H]2[C@H](O)C[C@]2(C)[C@@H]1CC[C@]2(O)C(=O)CO [NCGC00016215-01] | 0.70 | 60.7 |  | 
C[C@]12C=CC(=O)C=C1CC[C@@H]1[C@H]3C[C@@H](O)[C@](O)(C(=O)CO)[C@]3(C)C[C@H](O)[C@]12F [NCGC00016037-01] | 1.03 | 113.5 | 0.273 | log qEC50 [1]: −6.563
CCC(=O)O[C@H]1CC[C@H]2[C@@H]3CCC4=CC(=O)CC[C@]4(C)[C@H]3CC[C@]12C [NCGC00016254-01] |  |  | > 9 | 
CC(=O)O[C@H]1C[C@H]2CC[C@@H]3[C@@H](CC[C@]4(C)[C@H](OC(C)=O)[C@H]([N+]5(C)CCCCC5)C[C@@H]34)[C@]2(C)C[C@H]1[N+]1(C)CCCCC1 [NCGC00016716-01] |  |  | > 9 | 
C[C@@]12CC(=O)[C@H]3[C@@H](CCC4=CC(=O)CC[C@]43C)[C@H]1CCC2=O [NCGC00016440-01] |  |  | > 9 | 
COc1cc2c(cc1OC)-c1c(OC)c(OC)c(CO)c3c1[C@H](C2)N(C)CC3 [NCGC00017307-01] |  |  |  | qHTS Curve Class: 4 (inactive, where activity was below 28.6% (3σ for the present assay)); EC50: > 9 µM
C[C@@H]1[C@H](C)CC[C@@]2(C(=O)O)CC[C@]3(C)C(=CC[C@H]4[C@@]5(C)CC[C@@H](O)C(C)(C)[C@@H]5CC[C@@]43C)[C@@H]12 [NCGC00016318-01] |  |  |  | qHTS Curve Class: 4 (inactive, where activity was below 28.6% (3σ for the present assay)); EC50: > 9 µM
COc1cc2c(cc1O)CCC1C2CC[C@@]2(C)C1CC[C@@H]2O (some centres unmarked) [NCGC00025300-01] |  |  | > 9 | 
C[C@@]12C[C@@H](O)[C@H]3[C@@H](CCC4=CC(=O)CC[C@]43C)[C@H]1CC[C@H]2C(=O)CO [NCGC00016214-01] | 1.35 | 37.8 | 0.0165 | log qEC50 [1]: −7.782
CC(=O)CC(=O)[C@@]1(O)CC[C@@H]2[C@@H]3C=C(C)C4=CC(=O)CC[C@@H]4[C@H]3CC[C@]21C [NCGC00016884-01] | 0.57 | 15.6 |  | 
C[C@H](CCC(=O)NCC(=O)O)[C@H]1CC[C@H]2[C@H]3[C@@H](C[C@@H](O)[C@]12C)[C@]1(C)CC[C@H](O)C[C@@H]1C[C@@H]3O [NCGC00016452-01] |  |  | > 9 | 
CC(=O)[C@@H]1CC[C@@H]2[C@@H]3CC=C4C[C@H](OS(=O)(=O)O)CC[C@@]4(C)[C@H]3CC[C@]21C [NCGC00016184-01] |  |  | > 9 | 
C[C@@]12CCC(=O)C=C1CC[C@@H]1[C@@H]2[C@H](O)C[C@]2(C)[C@@H]1CC[C@]2(O)C(=O)CO [NCGC00015507-01] | 0.55 | 123.7 |  | 
CC(=O)O[C@H]1C[C@@]2(C)[C@@H](C[C@@H](O)[C@H]3[C@@]4(C)CC[C@@H](O)[C@@H](C)[C@@H]4CC[C@@]32C)/C1=C(\CCC=C(C)C)C(=O)[O-].[Na+] [NCGC00017030-01] |  |  |  | qHTS Curve Class: 4 (inactive, where activity was below 28.6% (3σ for the present assay)); EC50: > 9 µM
C#C[C@@]1(OC(C)=O)CC[C@@H]2[C@@H]3CCC4=C[C@@H](OC(C)=O)CC[C@H]4[C@H]3CC[C@]21C [NCGC00016417-01] |  |  |  | qHTS Curve Class: 4 (inactive, where activity was below 28.6% (3σ for the present assay)); EC50: > 9 µM
CC(=O)[C@@]1(O)CC[C@H]2[C@@H]3C[C@H](C)C4=CC(=O)C=C[C@]4(C)[C@@]3(F)[C@@H](O)C[C@@]21C [NCGC00016442-01] | 0.63 | 84.0 | 0.00821 | log qEC50 [1]: −8.086
CC(=O)[C@@]1(O)CC[C@@H]2[C@@H]3CCC4=CC(=O)CC[C@@]4(C)[C@H]3CC[C@]21C [NCGC00015510-01] | 0.35 | 100.0 |  | 

Compound | qHTS Hill Slope | qHTS Max Activity | EC50 [2] [µM] | further results
CCC(=O)O[C@]1(C(=O)SCF)[C@H](C)C[C@H]2[C@@H]3C[C@H](F)C4=CC(=O)C=C[C@]4(C)[C@@]3(F)[C@@H](O)C[C@@]21C [NCGC00016943-01] | 1.50 | 115.3 |  | 
CC1(C)CC[C@]2(C(=O)O)CC[C@]3(C)C(=CC[C@@H]4[C@@]5(C)CC[C@H](O)C(C)(C)[C@@H]5CC[C@@]43C)[C@@H]2C1 [NCGC00017222-01] |  |  |  | qHTS Curve Class: 4 (inactive, where activity was below 28.6% (3σ for the present assay)); EC50: > 9 µM
CC(=O)O[C@@H]1CC[C@]2(C)[C@H]3CC[C@]4(C)[C@H](C[C@H]5CCCC[C@@]54C(C)=O)[C@@H]3CC(=O)[C@@]2(O)C1 [NCGC00017282-01] |  |  | > 9 | 
C[C@]12Cc3cn4c(nc3C=C1CC[C@H]1[C@@H]2CC[C@@]2(C)[C@H]1CC[C@@]2(O)C#N)nc1ccccc14 [NCGC00016090-01] |  |  |  | qHTS Curve Class: 4 (inactive, where activity was below 28.6% (3σ for the present assay)); EC50: > 9 µM
CC(=O)O[C@]1(C(C)=O)CC[C@H]2[C@@H]3C=C(C)C4=CC(=O)CC[C@]4(C)[C@H]3CC[C@@]21C [NCGC00016516-01] | 0.49 | 47.2 | 0.0557 | log qEC50 [1]: −7.254
C[C@H]1CC[C@]2(NC1)O[C@@H]1C[C@@H]3[C@@H]4CC=C5C[C@H](O)CC[C@@]5(C)[C@H]4CC[C@@]3(C)[C@H]1[C@@H]2C [NCGC00017170-01] |  |  | > 9 | 
C#C[C@@]1(O)CC[C@@H]2[C@@H]3CCC4=CC(=O)CC[C@@H]4[C@H]3CC[C@]21C [NCGC00016303-01] |  |  |  | qHTS Curve Class: 4 (inactive, where activity was below 28.6% (3σ for the present assay))
CC(=O)O[C@H]1C[C@H]2CC[C@@H]3[C@H]4C[C@@H]([N+]5(C)CCCCC5)[C@@H](OC(C)=O)[C@]4(C)CC[C@@H]3[C@@]2(C)C[C@@H]1[N+]1(C)CCCCC1 [NCGC00024736-01] |  |  | > 9 | 
C#C[C@@]1(O)CC[C@H]2[C@H]3CCC4=Cc5oncc5C[C@]4(C)[C@@H]3CC[C@@]21C [NCGC00015375-01] |  |  |  | qHTS Curve Class: 4 (inactive, where activity was below 28.6% (3σ for the present assay)); EC50: > 9 µM
C[C@@]12CC[C@@H]3c4ccc(O)cc4CC[C@H]3[C@H]1C[C@@H](O)[C@H]2O [NCGC00016217-01] |  |  | > 9 | 
COc1ccc2c(c1)CC[C@H]1[C@@H]2CC[C@@]2(C)[C@@H](NCCCCCCN3C(=O)C=CC3=O)CC[C@@H]12 [NCGC00025091-01] |  |  | > 9 | 
C[C@@]12CC[C@H]3[C@@H](CC[C@]4(O)C[C@H](O)CC[C@@]34C=O)[C@]1(O)CC[C@@H]2C1=CC(=O)OC1 [NCGC00016295-01] |  |  | > 9 | 
CC(=O)[C@H]1CC[C@H]2[C@@H]3C=CC4=CC(=O)CC[C@@]4(C)[C@@H]3CC[C@]12C [NCGC00016413-01] |  |  |  | qHTS Curve Class: 4 (inactive, where activity was below 28.6% (3σ for the present assay)); EC50: > 9 µM
C[C@@]12CC[C@H](O)C[C@@H]1CC[C@H]1[C@H]2CC[C@@]2(C)[C@@H](C3=CC(=O)OC3)CC[C@]12O [NCGC00016406-01] |  |  | > 9 | 
C#C[C@@]1(O)CC[C@@H]2[C@@H]3CCC4=CC(=O)CC[C@@]4(C)[C@H]3CC[C@]21C [NCGC00016444-01] | 0.97 | 15.2 |  | 
C[C@@]12CC[C@@H]3c4ccc(O)cc4C[C@H](CCCCCCCCC[S+]([O-])CCCC(F)(F)C(F)(F)F)[C@H]3[C@@H]1CC[C@@H]2O (some centres unmarked) [NCGC00024964-01] |  |  | > 9 | 

From publication PMC2654417 (Combinatorial chemistry & high throughput screening, 2008)
